Patent publication US10604509B2, “Nrf2 regulators” (GlaxoSmithKline Intellectual Property Development Limited, priority 2015, dated 2020)
pEC50: −log10 of the molar value. Where a name gives a salt, the structure may show the parent alone.

Test system: NQO1 specific enzyme activity in BEAS-2B cells
Test: BEAS-2B NQO1 MTT assay
Assay type: cell-based
Details: BEAS-2B cells, 48 hours with compound, MTT readout; read-out: EC50 of NQO1 specific activity induction
Procedure, shortened: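 NQO1 specific activity, an NRF2 activation marker, read kinetically as absorbance change at 570 nm for 30 min after MTT cocktail addition to crude lysates of BEAS-2B cells exposed 48 h to compound. Three-parameter fit of Delta OD/min against log concentration gives EC50; lysate portion used for Cell Titer Glo.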

First: CCC1CCN(Cc2nccn2Cc2cc(C(CCc3cn(CC)nn3)C(C)C(=O)O)ccc2C)CC1 (single isomer, unassigned) [Example 226, 5-(1-Ethyl-1H-1,2,3-triazol-4-yl)-3-(3-((2-((4-ethylpiperidin-1-yl)methyl)-1H-imidazol-1-yl)methyl)-4-methylphenyl)-2-methylpentanoic acid, Trifluoroacetic Acid Salt]
Second: CCCn1cc(CCC(c2ccc(C)c(Cn3ccnc3CN3CCC(CC)CC3)c2)C(C)(C)C(=O)O)nn1 (single isomer, unassigned) [Example 247, 3-(3-((2-((4-Ethylpiperidin-1-yl)methyl)-1H-imidazol-1-yl)methyl)-4-methylphenyl)-2,2-dimethyl-5-(1-propyl-1H-1,2,3-triazol-4-yl)pentanoic Acid]
The pEC50 of the first is lower: 7.00 to 8.00 for the first, 8.00 to 9.00 for the second.

In the case of `CC[C@@H]1CN(Cc2cc(C(CCc3cn(CC)nn3)C(C)C(=O)O)ccc2C)Cc2ccccc2O1` (single isomer, unassigned; isomer 2) [Example 119], the pEC50 was 7.00 to 8.00.

Same assay, conditions: Homo sapiens, BEAS-2B, 48 h, BEAS-2B cells, 48 hours with compound, MTT readout; read-out: EC50 of NQO1 specific activity induction

First: Cc1ccc(C(c2ccc3c(nnn3C)c2C)C(C)(C)C(=O)O)cc1Cn1ccnc1CN1CCCCC1 (centres unmarked) [Example 123, 3-(1,4-Dimethyl-1H-benzo[d][1,2,3]triazol-5-yl)-2,2-dimethyl-3-(4-methyl-3-((2-(piperidin-1-ylmethyl)-1H-imidazol-1-yl)methyl)phenyl)propanoate, Sodium salt]
Second: Cc1ccc(C(c2ccc3c(nnn3C)c2C)C(C)(C)C(=O)O)cc1Cn1ccnc1CN1CCCOCC1 (centres unmarked) [Example 138, 3-(3-((2-((1,4-Oxazepan-4-yl)methyl)-1H-imidazol-1-yl)methyl)-4-methylphenyl)-3-(1,4-dimethyl-1H-benzo[d][1,2,3]triazol-5-yl)-2,2-dimethylpropanoic Acid]
The pEC50 of the first is higher: 7.00 to 8.00 for the first, 5.00 to 6.00 for the second.

First: Cc1cc2c(cn1)CN(Cc1cc(C(CC(=O)O)c3ccc4c(nnn4C)c3C)ccc1C)CC(C)(C)O2 (centres unmarked) [Example 108, 3-(1,4-dimethyl-1H-benzo[d][1,2,3]triazol-5-yl)-3-(4-methyl-3-((2,2,8-trimethyl-2,3-dihydropyrido[3,4-f][1,4]oxazepin-4(5H)-yl)methyl)phenyl)propanoic Acid, Formic Acid Salt]
Second: Cc1ccc2c(c1)CN(Cc1cc([C@H](CC(=O)O)c3ccc4c(nnn4C)c3C)ccc1C)CC(C)(C)O2 [Example 176, (S)-3-(1,4-Dimethyl-1H-benzo[d][1,2,3]triazol-5-yl)-3-(4-methyl-3-((2,2,7-trimethyl-2,3-dihydrobenzo[f][1,4]oxazepin-4(5H)-yl)methyl)phenyl) propanoic acid]
The pEC50 of the first is lower: 5.00 to 6.00 for the first, 7.00 to 8.00 for the second.

First: CCn1cc(CCC(c2ccc(C)c(CN3Cc4cccnc4OC(C)(C)C3)c2)C(C)(C)C(=O)O)nn1 (centres unmarked) [Example 223, 3-(3-((2,2-Dimethyl-2,3-dihydropyrido[3,2-f][1,4]oxazepin-4(5H)-yl)methyl)-4-methylphenyl)-5-(1-ethyl-1H-1,2,3-triazol-4-yl)-2,2-dimethylpentanoic Acid]
Second: CCn1cc(CCC(CC(=O)O)c2ccc(Cl)c(CN3Cc4cccnc4OC(C)(C)C3)c2)nn1 (centres unmarked) [Example 233, 3-(4-Chloro-3-((2,2-dimethyl-2,3-dihydropyrido[3,2-f][1,4]oxazepin-4(5H)-yl)methyl)phenyl)-5-(1-ethyl-1H-1,2,3-triazol-4-yl)pentanoic Acid]
The pEC50 of the first is higher: 8.00 to 9.00 for the first, 5.00 to 6.00 for the second. The first is the more potent here.

`CC[C@@H]1CN(Cc2cc([C@@H](CC(=O)O)c3ccc4c(nnn4CC)c3Cl)ccc2C)Cc2ccccc2O1` [Example 67, (R)-3-(4-Chloro-1-ethyl-1H-benzo[d][1,2,3]triazol-5-yl)-3-(3-(((R)-2-ethyl-2,3-dihydrobenzo[f][1,4]oxazepin-4(5H)-yl)methyl)-4-methylphenyl)propanoate, Sodium Salt] and `CC[C@@H]1CN(Cc2cc([C@H](CC(=O)O)c3ccc4c(nnn4CC)c3C)ccc2C)Cc2ccccc2O1` [Example 68, (S)-3-(3-(((R)-2-Ethyl-2,3-dihydrobenzo[f][1,4]oxazepin-4(5H)-yl)methyl)-4-methylphenyl)-3-(1-ethyl-4-methyl-1H-benzo[d][1,2,3]triazol-5-yl)propanoic Acid, Formic Acid Salt] fall in the same range of pEC50: 7.00 to 8.00 for the first, 7.00 to 8.00 for the second.

`CC[C@@H]1CN(Cc2cc(C(CC(=O)O)c3ccc4c(nnn4C)c3C)ccc2C)Cc2c(F)cccc2O1` (stereo partly drawn) [Example 83, 3-(1,4-Dimethyl-1H-benzo[d][1,2,3]triazol-5-yl)-3-(3-(((R)-2-ethyl-6-fluoro-2,3-dihydrobenzo[f][1,4]oxazepin-4(5H)-yl)methyl)-4-methylphenyl)propanoic acid] and `CCC1CN(Cc2cc(C(CC(=O)O)c3ccc4c(nnn4C)c3C)ccc2C)Cc2ccccc2O1` (centres unmarked) [Example 2, 3-(1,4-Dimethyl-1H-benzo[d][1,2,3]triazol-5-yl)-3-(3-((2-ethyl-2,3-dihydrobenzo[f][1,4]oxazepin-4(5H)-yl)methyl)-4-methylphenyl)propanoic Acid, Trifluoroacetic Acid Salt] fall in the same range of pEC50: 6.00 to 7.00 for the first, 6.00 to 7.00 for the second.

Compared with `CCC1CCC(Cc2nccn2Cc2cc(C(CC(=O)O)c3ccc4c(nnn4C)c3C)ccc2C)CC1` (centres unmarked) [Example 132, 3-(1,4-Dimethyl-1H-benzo[d][1,2,3]triazol-5-yl)-3-(3-((2-((4-ethylcyclohexyl)methyl)-1H-imidazol-1-yl)methyl)-4-methylphenyl)propanoic Acid], `CCC1Cc2ccc(F)cc2CN(Cc2cc(C(CC(=O)O)c3ccc4c(nnn4C)c3C)ccc2C)C1` (centres unmarked) [compound 107, 3-(1,4-dimethyl-1H-benzo[d][1,2,3]triazol-5-yl)-3-(3-((4-ethyl-8-fluoro-4,5-dihydro-1H-benzo[c]azepin-2(3H)-yl)methyl)-4-methylphenyl)propanoic acid] is higher in pEC50: 5.00 to 6.00 for the first, 7.00 to 8.00 for the second.

First: CC[C@@H]1CN(Cc2cc([C@@H](c3ccc4c(nnn4C)c3C)C(C)(C)C(=O)O)ccc2C)Cc2cncc(F)c2O1 [Example 28, (S)-3-(1,4-Dimethyl-1H-benzo[d][1,2,3]triazol-5-yl)-3-(3-(((R)-2-ethyl-9-fluoro-2,3-dihydropyrido[3,4-f][1,4]oxazepin-4(5H)-yl)methyl)-4-methylphenyl)-2,2-dimethylpropanoic acid]
Second: Cc1ccc(C(c2ccc3c(nnn3C)c2C)C(C)(C)C(=O)O)cc1Cn1ccnc1CN1CCO[C@H](C)C1 (stereo partly drawn) [Example 144, 3-(1,4-Dimethyl-1H-benzo[d][1,2,3]triazol-5-yl)-2,2-dlmethyl-3-(4-methyl-3-((2-(((R)-2-methylmorpholino)methyl)-1H-imidazol-1-yl)methyl)phenyl) propanoic acid, trifluoroacetic acid salt]
The pEC50 of the first is higher: greater than 9.00 for the first, 6.00 to 7.00 for the second. The first is the more potent here.

First: Cc1ccc(C(CC(=O)O)c2ccc3c(nnn3C)c2C)cc1Cc1nnnn1CC1CCCCC1 (centres unmarked) [Example 134, 3-(3-((1-(Cyclohexylmethyl)-1H-tetrazol-5-yl)methyl)-4-methylphenyl)-3-(1,4-dimethyl-1H-benzo[d][1,2,3]triazol-5-yl)propanoic acid, hydrochloride salt]
Second: Cc1ccc(C(CC(=O)O)c2ccc3c(nnn3C)c2C)cc1CN1CCCC(S(=O)(=O)c2ccccc2)C1 (centres unmarked) [Example 185, 3-(1,4-Dimethyl-1H-benzo[d][1,2,3]triazol-5-yl)-3-(4-methyl-3-((3-(phenylsulfonyl)piperidin-1-yl)methyl)phenyl)propanoic Acid]
The pEC50 of the first is lower: 6.00 to 7.00 for the first, 7.00 to 8.00 for the second.

First: Cc1c(C(CC(=O)O)c2ccc(Cl)c(CN3CCCC(n4cccn4)C3)c2)ccc2c1nnn2C (centres unmarked) [Example 160, 3-(3-((3-(1H-Pyrazol-1-yl)piperidin-1-yl)methyl)-4-chlorophenyl)-3-(1,4-dimethyl-1H-benzo[d][1,2,3]triazol-5-yl)propanoic Acid, Formic Acid Salt]
Second: COc1ccc2c(c1)OC(C)(C)CN(Cc1cc([C@H](CC(=O)O)c3ccc4c(nnn4C)c3C)ccc1C)C2 [Example 168, (S)-3-(1,4-Dimethyl-1H-benzo[d][1,2,3]triazol-5-yl)-3-(3-((8-methoxy-2,2-dimethyl-2,3-dihydrobenzo[f][1,4]oxazepin-4(5H)-yl)methyl)-4-methylphenyl)propanoic acid]
The pEC50 of the first is lower: 5.00 to 6.00 for the first, 7.00 to 8.00 for the second. The second is the more potent here.

First: Cc1ccc(C(CC(=O)NS(C)(=O)=O)c2ccc3c(nnn3C)c2C)cc1CN1Cc2ccccc2OC(C)(C)C1 (centres unmarked) [Example 187, 3-(1,4-Dimethyl-1H-benzo[d][1,2,3]triazol-5-yl)-3-(3-((2,2-dimethyl-2,3-dihydrobenzo[f][1,4]oxazepin-4(5H)-yl)methyl)-4-methylphenyl)-N-(methylsulfonyl)propanamide]
Second: CCn1nnc2c(Cl)c([C@H](c3ccc(C)c(CN4Cc5cccnc5OC(C)(C)C4)c3)[C@@H](C)C(=O)O)ccc21 [Example 194, (2R,3S)-3-(4-Chloro-1-ethyl-1H-benzo[d][1,2,3]triazol-5-yl)-3-(3-((2,2-dimethyl-2,3-dihydropyrido[3,2-f][1,4]oxazepin-4(5H)-yl)methyl)-4-methylphenyl)-2-methylpropanoic acid]
The pEC50 of the first is lower: 6.00 to 7.00 for the first, 7.00 to 8.00 for the second.

`CCC1CN(Cc2cc(C(CC(=O)O)c3cc(OC)c4c(c3)nnn4C)ccc2C)Cc2ccccc2O1` (centres unmarked) [compound 46] and `Cc1ccc(C(CCc2cn(C)nn2)CC(=O)O)cc1Cn1ccnc1CC1CCCCC1` (centres unmarked) [Example 130, 3-(3-((2-(Cyclohexylmethyl)-1H-imidazol-1-yl)methyl)-4-methylphenyl)-5-(1-methyl-1H-1,2,3-triazol-4-yl)pentanoic Acid] fall in the same range of pEC50: 6.00 to 7.00 for the first, 6.00 to 7.00 for the second.

Same assay, conditions: Homo sapiens; BEAS-2B cells, 48 hours with compound, MTT readout; read-out: EC50 of NQO1 specific activity induction

With `CC[C@@H]1CN(Cc2cc([C@H](CC(=O)O)c3ccc4c(nnn4C)c3C)ccc2C)Cc2ncccc2O1` [Example 258, (S)-3-(1,4-dimethyl-1H-benzo[d][1,2,3]triazol-5-yl)-3-(3-(((R)-2-ethyl-2.3-dihydropyrido[2,3-f][1,4]oxazepin-4(5H)-yl)methyl)-4-methylphenyl)propionic Acid] the pEC50 was 7.00 to 8.00.
